From patent US8962627B2, “Oxime derivatives and their use as allosteric modulators of metabotropic glutamate receptors” (Prestwick Chemical, Inc., priority 2009, dated 2015)

What was measured:
[1] = biological target: T1, human mGluR4 transiently over-expressed in HEK-293 cells (Homo sapiens, UniProt Q14833); assay: Human mGluR4 positive allosteric modulator evaluation using Ca++ functional assay; type: cell-based; conditions: for EC50: HEK-293 cells co-transfected with hmGluR4 and chimeric G protein, EC10 glutamate, intracellular calcium (Fluo4AM), read-out: mean EC50 of agonist/positive allosteric modulator activity on mGluR4; for PAM activity on mGluR4: up to 100 μM
T1 construct: expressed in transfected cells; host or cells: HEK-293 cells, transient co-transfection by electroporation
T1 sequence (Q14833 33-912): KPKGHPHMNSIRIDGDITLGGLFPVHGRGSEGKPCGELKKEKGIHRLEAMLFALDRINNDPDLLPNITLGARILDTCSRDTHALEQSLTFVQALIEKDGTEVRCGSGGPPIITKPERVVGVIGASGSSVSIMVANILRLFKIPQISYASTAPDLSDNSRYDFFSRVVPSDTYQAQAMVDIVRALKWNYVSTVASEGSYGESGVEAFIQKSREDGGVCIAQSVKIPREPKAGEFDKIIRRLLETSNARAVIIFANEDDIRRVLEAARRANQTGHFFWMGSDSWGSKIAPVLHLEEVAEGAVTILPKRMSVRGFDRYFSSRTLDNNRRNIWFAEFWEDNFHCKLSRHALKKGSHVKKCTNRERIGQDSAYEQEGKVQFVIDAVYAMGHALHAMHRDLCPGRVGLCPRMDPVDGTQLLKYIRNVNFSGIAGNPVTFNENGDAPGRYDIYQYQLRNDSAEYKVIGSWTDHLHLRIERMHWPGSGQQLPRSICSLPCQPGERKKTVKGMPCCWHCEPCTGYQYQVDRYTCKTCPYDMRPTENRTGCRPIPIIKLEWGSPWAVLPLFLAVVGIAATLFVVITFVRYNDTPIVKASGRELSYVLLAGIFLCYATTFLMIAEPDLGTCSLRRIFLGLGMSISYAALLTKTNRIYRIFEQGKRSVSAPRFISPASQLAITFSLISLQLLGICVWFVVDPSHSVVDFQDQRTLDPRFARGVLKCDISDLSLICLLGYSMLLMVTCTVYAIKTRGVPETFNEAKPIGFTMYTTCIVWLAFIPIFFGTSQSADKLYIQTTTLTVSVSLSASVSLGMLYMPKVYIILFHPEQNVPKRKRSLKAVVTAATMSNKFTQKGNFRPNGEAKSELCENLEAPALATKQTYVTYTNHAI
In short: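 HEK-293 cells transiently co-transfected with hmGluR4 and a chimeric G protein, loaded with Fluo4AM; Ca2+ fluorescence read 485/525 nm. Compound alone read 60 s, then EC10 glutamate added and read 60 s more. EC50 fitted from 6–9 concentrations, duplicate, two independent runs.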

| SMILES | melting point | EC50 [1] [nM] | PAM activity on mGluR4 [1] |
| --- | --- | --- | --- |
| OCCC#Cc1ccc2c(=NO)cc(-c3cc4ccccc4cn3)oc2c1 (mixture of isomers) [Example 52, 7-(4-Hydroxy-but-1-ynyl)-2-isoquinolin-3-yl-chromen-4-one oxime] | 238 to 240 °C | < 5000 |  |
| ON=c1cc(-c2cc3ccccc3cn2)oc2ccc(OC(F)(F)F)cc12 (mixture of isomers) [Example 10, 2-isoquinolin-3-yl-6-trifluoromethoxy-chromen-4-one oxime] | 250 to 254 °C | < 5000 |  |
| C=CC#Cc1ccc2c(=NO)cc(-c3cc4ccccc4cn3)oc2c1 (mixture of isomers) [Example 55, 7-but-3-en-1-ynyl-2-Isoquinolin-3-yl-chromen-4-one oxime] | > 210 °C (dec.) | < 5000 |  |
| ON=c1cc(-c2cc3ccccc3cn2)oc2ccc(O)cc12 (mixture of isomers) [Example 41, 6-hydroxy-2-isoquinolin-3-yl-chromen-4-one oxime] | 255 to 260 °C | < 5000 |  |
| CN(C)C1CCN(CCOc2ccc3oc(-c4cc5cccn5cn4)cc(=NO)c3c2)CC1.Cl.Cl [Example 99, 6-[2-(4-dimethylamino-piperidin-1-yl)-ethoxy]-2-pyrrolo[1,2-c]pyrimidin-3-yl-chromen-4-one oxime, dihydrochloride] | > 255 °C (dec.) | < 1000 |  |
| ON=c1cc(-c2cc3cc(Br)cn3cn2)oc2ccccc12 [Example 65, 2-(6-bromo-Pyrrolo[1,2-c]pyrimidin-3-yl)-chromen-4-one oxime] | 244 to 245 °C | < 5000 |  |
| Cl.ON=c1cc(-c2cc3cccn3cn2)oc2ccc(OCCc3ccncc3)cc12 [Example 136, 6-(2-Pyridin-4-yl-ethoxy)-2-pyrrolo[1,2-c]pyrimidin-3-yl-chromen-4-one oxime, hydrochloride] | > 270 °C (dec.) | < 5000 |  |
| CN(C)CCOc1ccc2oc(-c3cc4ccccc4cn3)cc(=NO)c2c1 (mixture of isomers) [Example 44, 6-(2-dimethylamino-ethoxy)-2-isoquinolin-3-yl-chromen-4-one oxime] | 203 to 205 °C | < 5000 |  |
| ON=c1cc(-c2cc3cccn3cn2)oc2ccc(OCCOc3ccccc3)cc12 [Example 160, 6-(2-Phenoxy-ethoxy)-2-pyrrolo[1,2-c]pyrimidin-3-yl-chromen-4-one oxime] | 210 to 215 °C | < 1000 |  |
| ON=c1cc(-c2cc3cccn3cn2)oc2ccc(OCCc3cccc(C(F)(F)F)c3)cc12 [Example 141, 2-Pyrrolo[1,2-c]pyrimidin-3-yl-6-[2-(3-trifluoromethyl-phenyl)-ethoxy]-chromen-4-one oxime] | 217 to 218 °C | < 1000 |  |
| Cl.ON=c1cc(-c2cc3sccc3cn2)oc2ccc(OCCN3CCCC(F)(F)C3)cc12 [Example 131, 6-[2-(3,3-Difluoro-piperidin-1-yl)-ethoxy]-2-thieno[3,2-c]pyridin-6-yl-chromen-4-one oxime, hydrochloride] | > 250 °C (dec.) | < 1000 |  |
| ON=c1cc(-c2ccc3ccccc3n2)oc2ccccc12 [Example 79, 2-Quinolin-2-yl-chromen-4-one oxime] | 232 to 235 °C |  | no PAM activity |
| Cl.ON=c1cc(-c2cn3cccc3cn2)oc2ccc(OCCN3CCOCC3)cc12 [Example 123, 6-(2-Morpholin-4-yl-ethoxy)-2-(8aH-pyrrolo[1,2-a]pyrazin-3-yl)-chromen-4-one oxime, hydrochloride] | > 250 °C (dec.) | < 1000 |  |
| Cl.ON=c1cc(-c2cc3ccsc3cn2)oc2ccc(OCCN3CCOCC3)cc12 [Example 158, 6-(2-Morpholin-4-yl-ethoxy)-2-thieno[2,3-c]pyridin-5-yl-chromen-4-one oxime, hydrochloride] | 258 to 260 °C | < 1000 |  |
| Cl.Cl.ON=c1cc(-c2cc3cccn3cn2)oc2ccc(OCCN3CCC(N4CCCCC4)CC3)cc12 [Example 116, 6-(2-[1,4′]bipiperidinyl-1′-yl-ethoxy)-2-pyrrolo[1,2-c]pyrimidin-3-yl-chromen-4-one oxime, dihydrochloride] | > 235 °C (dec.) | < 1000 |  |
| ON=c1cc(-c2ccncn2)oc2ccccc12 [Example 80, 2-Pyrimidin-4-yl-chromen-4-one oxime] | 208 to 211 °C |  | no PAM activity |
| ON=c1cc(-c2cc3cccn3cn2)oc2cccc(C(F)(F)F)c12 [Example 153, 2-Pyrrolo[1,2-c]pyrimidin-3-yl-5-trifluoromethyl-chromen-4-one oxime] | 255 to 257 °C | < 5000 |  |

| SMILES | melting point | EC50 [1] [nM] | PAM activity on mGluR4 [1] |
| --- | --- | --- | --- |
| COCCCc1ccc2oc(-c3cc4cccn4cn3)cc(=NO)c2c1 (mixture of isomers) [Example 83, 6-(3-Methoxy-propyl)-2-pyrrolo[1,2-c]pyrimidin-3-yl-chromen-4-one oxime] | 172 to 173 °C | < 1000 |  |
| CN(C)c1ccc2oc(-c3cc4ccccc4cn3)cc(=NO)c2c1 [Example 39, 6-dimethylamino-2-isoquinolin-3-yl-chromen-4-one oxime] | 223 to 225 °C | < 5000 |  |
| Cl.ON=c1cc(-c2cc3cccn3cn2)oc2ccc(OCCN3CCCOCC3)cc12 [Example 117, 6-(2-[1,4]oxazepan-4-yl-ethoxy)-2-pyrrolo[1,2-c]pyrimidin-3-yl-chromen-4-one oxime, hydrochloride] | 240 °C (dec.) | < 1000 |  |
| Cl.ON=c1cc(-c2cc3cccn3cn2)oc2ccc(OCCCN3CCOCC3)cc12 [Example 101, 6-(3-morpholin-4-yl-propoxy)-2-pyrrolo[1,2-c]pyrimidin-3-yl-chromen-4-one oxime, hydrochloride] | > 220 °C (dec.) | < 1000 |  |
| Cl.ON=c1cc(-c2cc3sccc3cn2)oc2ccc(OCCN3CCC(F)(F)C3)cc12 [Example 133, 6-[2-(3,3-Difluoro-pyrrolidin-1-yl)-ethoxy]-2-thieno[3,2-c]pyridin-6-yl-chromen-4-one oxime, hydrochloride] | 226 to 229 °C | < 1000 |  |
| COC[C@@H]1CCCN1CCOc1ccc2oc(-c3cc4cccn4cn3)cc(=NO)c2c1.Cl [Example 96, 6-[2-((S)-2-methoxymethylpyrrolidin-1-yl)-ethoxy]-2-pyrrolo[1,2-c]pyrimidin-3-yl-chromen-4-one oxime, hydrochloride] | > 225 °C (dec.) | < 1000 |  |
| ON=c1cc(-c2cc3cccn3cn2)oc2ccc(OCCc3ccc(C(F)(F)F)cc3)cc12 [Example 137, 2-Pyrrolo[1,2-c]pyrimidin-3-yl-6-[2-(4-trifluoromethyl-phenyl)-ethoxy]-chromen-4-one, oxime] | 214 to 215 °C | < 1000 |  |
| COCCOc1ccc2oc(-c3cc4ccccc4cn3)cc(=NO)c2c1 (mixture of isomers) [Example 43, 2-isoquinolin-3-yl-6-(2-methoxy-ethoxy)-chromen-4-one oxime] | 198 to 204 °C | < 1000 |  |
| ON=c1cc(-c2cc3ccccc3cn2)oc2ccc(F)cc12 (mixture of isomers) [Example 6, 6-fluoro-2-isoquinolin-3-yl-chromen-4-one oxime] | 278 to 280 °C | < 5000 |  |
| Cl.ON=c1cc(-c2cn3cccc3cn2)oc2ccc(OCCn3ccnc3)cc12 [Example 125, 6-(2-Imidazol-1-yl-ethoxy)-2-pyrrolo[1,2-a]pyrazin-3-yl-chromen-4-one oxime, hydrochloride] | 238 to 240 °C | < 1000 |  |
| ON=c1cc(-c2ccc3ccccc3c2)oc2ccccc12 [Example 74, 2-Naphthalen-2-yl-chromen-4-one oxime] | 224 to 226 °C |  | no PAM activity |
| ON=c1cc(-c2cc3ccccc3cn2)oc2cc(C#Cc3ccncc3)ccc12 (mixture of isomers) [Example 26, 2-isoquinolin-3-yl-7-(pyridin-4-yl)ethynyl-chromen-4-one oxime] | 265 to 270 °C | < 5000 |  |
| Cl.ON=c1cc(-c2cn3cccc3cn2)oc2ccc(OCCN3CCC(F)(F)CC3)cc12 [Example 124, 6-[2-(4,4-Difluoro-piperidin-1-yl)-ethoxy]-2-pyrrolo[1,2-a]pyrazin-3-yl-chromen-4-one oxime, hydrochloride] | 225 to 230 °C | < 1000 |  |
| Cl.ON=c1cc(-c2cc3cccn3cn2)oc2ccc(CCCCN3CCOCC3)cc12 [Example 102, 6-(4-morpholin-4-yl-butyl)-2-pyrrolo[1,2-c]pyrimidin-3-yl-chromen-4-one oxime, hydrochloride] | 180 to 185 °C | < 1000 |  |
| COCCN(CCOC)CCOc1ccc2oc(-c3cc4cccn4cn3)cc(=NO)c2c1.Cl [Example 104, 6-(2-[bis-(2-methoxy-ethyl)-amino]-ethoxy)-2-pyrrolo[1,2-c]pyrimidin-3-yl-chromen-4-one oxime, hydrochloride] | 155 to 160 °C | < 1000 |  |
| CN(C(=O)COc1ccc2oc(-c3cc4cccn4cn3)cc(=NO)c2c1)c1ccc(F)cc1 [Example 151, N-(4-Fluoro-phenyl)-2-{4-hydroxyimino-2-pyrrolo[1,2-c]pyrimidin-3-yl-4H-chromen-6-yloxy}-N-methyl-acetamide] | 268 to 272 °C | < 5000 |  |
| CCc1ccc2oc(-c3cc4ccccc4cn3)cc(=NO)c2c1 [Example 37, 6-ethyl-2-isoquinolin-3-yl-chromen-4-one oxime] | 210 to 212 °C | < 1000 |  |
